Data taken from ChEMBL document CHEMBL1157232, “Wortmannilactones A-D, 22-membered triene macrolides from Talaromyces wortmannii” (J Nat Prod, 2006).
Converted amounts (≈) assume the structure as drawn.

Experiments:
[1] = test system: B16-F10; test: Cytotoxicity against mouse B16-F10 cells; format: functional, cell-based
[2] = test system: Human alphaherpesvirus 1; test: Antiviral activity against Herpes simplex virus 1; format: functional, organism-based
[3] = test system: Human alphaherpesvirus 2; test: Antiviral activity against Herpes simplex virus 2; format: functional, organism-based
[4] = Cytotoxicity against human HCT5 cells; format: functional, cell-based
[5] = Cytotoxicity against human HCT115 cells; format: functional, cell-based
[6] = test system: A549; test: Cytotoxicity against human A549 cells; format: functional, cell-based
[7] = test system: MDA-MB-231; test: Cytotoxicity against human MDA-MB-231 cells; format: functional, cell-based
[8] = test system: K562; test: Cytotoxicity against human K562 cells; format: functional, cell-based

SMILES	IC50 [1]	IC50 [2]	IC50 [3]	IC50 [4]	IC50 [5]	IC50 [6]	IC50 [7]	IC50 [8]
C[C@@H]1CCC/C=C/C=C/[C@H](O)C[C@@H](O)C/C=C\C=C\[C@@H](O)C/C=C/C=C\C(=O)O1 [MACROLACTIN A]	3.5 µg/mL (≈ 8.69 µM)	5 µg/mL (≈ 12.4 µM)	8.3 µg/mL (≈ 20.6 µM)	–	–	–	–	–
CC(O)CC1C/C=C/C=C/C=C/C(O)CC(O)CC(O)C/C=C/C=C/C=C/C(=O)O1 (stereo not drawn) [WORTMANNILACTONE A]	–	–	–	28.7 µM	35 µM	76.5 µM	108 µM	65.7 µM
CC(O)CC1CC(O)/C=C/C=C/C=C/CC(O)CC(O)C/C=C/C=C/C=C/C(=O)O1 (stereo not drawn) [WORTMANNILACTONE C]	–	–	–	56.3 µM	52.4 µM	118 µM	120 µM	130 µM
COC1/C=C/C=C/C=C/CC(O)CC(O)C/C=C/C=C/C=C/C(=O)OC(CC(C)O)C1 (stereo not drawn) [WORTMANNILACTONE D]	–	–	–	46.3 µM	44.7 µM	116 µM	111 µM	123 µM
COC1/C=C/C=C/C=C/CC(CC(C)O)OC(=O)/C=C/C=C/C=C/CC(O)CC(O)C1 (stereo not drawn) [WORTMANNILACTONE B]	–	–	–	32.4 µM	41.7 µM	104 µM	95.6 µM	116 µM
